Where two headings read alike, the source gives them in different places.
Key:
N-type calcium channel = N-type calcium channel (Homo sapiens, UniProt Q00975); assay: N-channel FLIPR assay; assay type: cell-based
[1] = system: formalin-induced nocifensive behaviours; assay: Formalin test; assay type: in vivo, rats; settings: Rattus norvegicus, read-out: IPT (Formalin)
Procedure: The Formalin test assesses the inhibitory effects of orally administered N-type calcium channel antagonists on formalin-induced nocifensive behaviours in rats. The formalin test is a well established pain test (Dubuisson and Dennis, 1977; Wheeler-Aceto et al., 1990; Coderre et al., 1993). This test consists of two distinct phases of formalin-induced behaviour. The first phase response, occurring between 0 to 5 minutes, is caused by acute nociception to the noxious chemical (formalin) injected into the paw. This is followed by a quiescent period of between 5 to 15 min post injection. A second phase response, occurring after 15 minutes and lasting up to 60 minutes, is caused by sensitisation of the central neurons in the dorsal horn. Central sensitisation augments the noxious afferent input and a stronger pain barrage is transmitted into the brain. Inhibition of the second phase response is indicative of a central mechanism of drug action.
The procedure for the formalin test is as follows: male rats are placed in a plexiglass chamber and observed for 30-45 min. to observe their baseline activity. Multiple groups of animals are pretreated with either vehicle or different doses of a test compound. Animals are dosed with the drug of interest either 40 min., if by the intraperitoneal route, or 90 min., if by the oral route, prior to injection of formalin into a hind paw (under the dorsal skin; 0.05 mL of sterile 5% formalin). The number of paw flinches and licks during first phase (0-5 min.) and second phase (20-35 min.) are scored and recorded. Flinch and lick responses are calculated as percentage of inhibition compared with the mean score of a saline control group. Drug potencies are expressed as the dose which causes 50% of the maximum inhibitory effect (“ID50”). Student t-tests are used for statistical analysis to determine the significance of drug effects. Compounds are considered active based on their ability to inhibit the flinch response.

L-type calcium channel = assay: L-channel FLIPR assay; assay type: cell-based, human; settings: 5-point concentration-response curves; SK-N-SH cells
Procedure: An immortalized cell line, SK-N-SH, derived from human neuroblastoma cells (ATCC product # HTB-11) was used for all experiments. Cells were grown in T75 flasks containing Eagle's minimum essential medium (MEM) w/Earle's salts, with 0.1 mM non-essential amino acids, 1.0 mM Na pyruvate and 10% fetal bovine serum (FBS; Cat. # SLM-034-B, Specialty Media). Cells were grown to 100% confluency (by visual microscopic estimation) before sub-culture. Cells were sub-cultured at a ratio of 1:3 by first rinsing with 3 mL PBS, replacing the PBS with PBS containing 0.25% trypsin until the cells detached from the surface. 1 mL of the resulting suspension was then added to a new flask containing 10 mL fresh media. Cells were then incubated (37° C., 5% CO2), and media was exchanged about 3 days after subculturing.
Cells used for experiments were at the 100% confluency growth stage. Each flask provided enough cells for three 96-well plates. […]
Maximum signal (L-channel+non-specific): 12 wells received 20 μL buffer addition only (no nitrendipine) in the first solution addition sequence to define the maximal K^+-evoked Ca^2+ increase mediated by L-channels+non-specific (non-L-channel mediated fluorescence increase). The coefficient of variation amongst these wells for the K^+-evoked peak increase in fluorescence units was typically less than 12%. […]

pain = settings: in vivo; cited from earlier work

N-type calcium channel, sequence (Q00975 whole entry): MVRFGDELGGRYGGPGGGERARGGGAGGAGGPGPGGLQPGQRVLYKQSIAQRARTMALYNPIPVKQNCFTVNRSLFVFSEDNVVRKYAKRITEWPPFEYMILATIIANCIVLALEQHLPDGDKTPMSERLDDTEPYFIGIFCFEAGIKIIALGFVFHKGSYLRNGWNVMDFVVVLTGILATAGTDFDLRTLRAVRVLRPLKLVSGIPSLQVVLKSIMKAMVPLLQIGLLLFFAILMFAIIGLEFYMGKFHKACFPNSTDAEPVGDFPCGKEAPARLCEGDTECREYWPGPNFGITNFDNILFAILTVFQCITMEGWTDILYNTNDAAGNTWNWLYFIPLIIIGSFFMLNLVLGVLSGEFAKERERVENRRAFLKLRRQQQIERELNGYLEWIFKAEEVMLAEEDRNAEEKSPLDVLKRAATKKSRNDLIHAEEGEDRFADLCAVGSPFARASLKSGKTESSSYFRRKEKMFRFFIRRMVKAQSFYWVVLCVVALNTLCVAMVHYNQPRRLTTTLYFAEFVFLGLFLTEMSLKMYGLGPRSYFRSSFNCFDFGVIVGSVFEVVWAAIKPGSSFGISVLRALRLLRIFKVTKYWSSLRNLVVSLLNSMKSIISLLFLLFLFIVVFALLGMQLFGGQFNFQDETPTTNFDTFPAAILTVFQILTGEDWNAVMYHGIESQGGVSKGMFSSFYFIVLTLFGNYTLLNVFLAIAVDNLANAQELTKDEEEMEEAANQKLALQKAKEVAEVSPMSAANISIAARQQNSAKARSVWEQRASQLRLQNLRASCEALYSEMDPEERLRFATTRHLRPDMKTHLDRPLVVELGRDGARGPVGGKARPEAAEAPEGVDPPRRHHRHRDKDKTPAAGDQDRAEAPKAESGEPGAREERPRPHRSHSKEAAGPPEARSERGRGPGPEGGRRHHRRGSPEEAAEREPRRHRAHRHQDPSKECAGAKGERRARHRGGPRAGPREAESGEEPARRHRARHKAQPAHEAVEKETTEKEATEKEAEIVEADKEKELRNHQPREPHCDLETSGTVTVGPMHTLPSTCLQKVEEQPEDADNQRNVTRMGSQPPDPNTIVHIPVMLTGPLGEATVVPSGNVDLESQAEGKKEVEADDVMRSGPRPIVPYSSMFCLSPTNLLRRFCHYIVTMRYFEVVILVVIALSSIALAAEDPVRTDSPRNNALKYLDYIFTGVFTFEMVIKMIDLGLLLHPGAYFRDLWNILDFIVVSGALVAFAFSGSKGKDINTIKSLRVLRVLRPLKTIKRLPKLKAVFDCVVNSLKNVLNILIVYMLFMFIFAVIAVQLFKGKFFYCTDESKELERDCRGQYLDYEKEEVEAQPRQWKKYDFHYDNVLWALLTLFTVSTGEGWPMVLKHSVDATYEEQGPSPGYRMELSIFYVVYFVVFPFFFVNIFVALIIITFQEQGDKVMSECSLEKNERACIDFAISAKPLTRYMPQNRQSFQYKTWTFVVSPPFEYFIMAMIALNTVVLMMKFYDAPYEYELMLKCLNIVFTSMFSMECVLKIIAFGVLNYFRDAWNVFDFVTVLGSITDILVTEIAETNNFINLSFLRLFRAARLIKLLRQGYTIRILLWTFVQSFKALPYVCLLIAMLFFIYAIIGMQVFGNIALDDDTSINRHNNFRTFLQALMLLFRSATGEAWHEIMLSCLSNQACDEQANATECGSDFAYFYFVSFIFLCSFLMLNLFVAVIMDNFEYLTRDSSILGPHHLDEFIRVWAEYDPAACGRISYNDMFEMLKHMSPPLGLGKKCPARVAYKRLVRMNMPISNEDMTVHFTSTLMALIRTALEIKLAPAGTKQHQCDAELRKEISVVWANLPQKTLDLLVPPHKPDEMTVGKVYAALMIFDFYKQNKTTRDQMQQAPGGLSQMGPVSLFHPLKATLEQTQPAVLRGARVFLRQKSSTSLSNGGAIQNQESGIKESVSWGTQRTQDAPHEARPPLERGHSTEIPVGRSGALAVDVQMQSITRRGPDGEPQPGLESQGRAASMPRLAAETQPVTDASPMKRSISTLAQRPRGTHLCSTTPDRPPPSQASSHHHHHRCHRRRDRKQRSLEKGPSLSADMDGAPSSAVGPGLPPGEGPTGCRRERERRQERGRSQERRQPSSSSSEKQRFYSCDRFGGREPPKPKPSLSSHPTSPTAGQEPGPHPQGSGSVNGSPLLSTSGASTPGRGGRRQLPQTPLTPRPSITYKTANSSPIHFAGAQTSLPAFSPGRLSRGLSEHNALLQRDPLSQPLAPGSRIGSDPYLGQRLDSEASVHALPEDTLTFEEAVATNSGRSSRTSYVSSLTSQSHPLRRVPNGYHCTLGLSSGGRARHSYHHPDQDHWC
N-type calcium channel, sequence (P54289 25-956 partner limits assumed): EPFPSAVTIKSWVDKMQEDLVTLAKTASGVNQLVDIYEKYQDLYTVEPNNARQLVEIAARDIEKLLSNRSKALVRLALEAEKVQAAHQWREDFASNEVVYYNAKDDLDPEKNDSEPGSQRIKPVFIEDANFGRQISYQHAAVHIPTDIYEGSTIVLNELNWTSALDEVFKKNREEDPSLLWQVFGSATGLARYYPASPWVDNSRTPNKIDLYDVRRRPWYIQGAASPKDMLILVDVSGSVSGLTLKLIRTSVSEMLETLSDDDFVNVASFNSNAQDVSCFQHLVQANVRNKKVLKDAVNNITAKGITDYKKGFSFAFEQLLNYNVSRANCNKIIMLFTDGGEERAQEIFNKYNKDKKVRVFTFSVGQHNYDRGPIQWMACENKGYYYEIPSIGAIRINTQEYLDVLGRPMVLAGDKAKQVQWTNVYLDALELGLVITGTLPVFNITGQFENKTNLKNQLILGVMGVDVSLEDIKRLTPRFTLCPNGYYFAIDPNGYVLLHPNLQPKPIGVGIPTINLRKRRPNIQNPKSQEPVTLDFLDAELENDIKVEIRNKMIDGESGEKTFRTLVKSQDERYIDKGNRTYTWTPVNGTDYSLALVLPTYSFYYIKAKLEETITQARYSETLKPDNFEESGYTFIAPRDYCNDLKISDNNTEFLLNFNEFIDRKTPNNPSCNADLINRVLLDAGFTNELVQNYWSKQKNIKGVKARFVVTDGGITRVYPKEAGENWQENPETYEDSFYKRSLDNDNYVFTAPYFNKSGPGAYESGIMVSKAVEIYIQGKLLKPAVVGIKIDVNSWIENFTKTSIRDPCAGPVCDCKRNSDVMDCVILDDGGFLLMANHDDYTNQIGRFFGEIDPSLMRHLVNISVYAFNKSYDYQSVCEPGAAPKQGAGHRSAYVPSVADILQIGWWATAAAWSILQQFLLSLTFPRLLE
N-type calcium channel, sequence (P54289 957-1103 partner limits assumed): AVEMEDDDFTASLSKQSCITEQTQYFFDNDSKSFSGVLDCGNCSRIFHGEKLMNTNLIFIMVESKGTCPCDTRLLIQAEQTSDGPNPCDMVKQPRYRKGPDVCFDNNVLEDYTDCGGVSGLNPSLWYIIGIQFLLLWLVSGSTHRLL
N-type calcium channel, sequence (Q02641 whole entry partner): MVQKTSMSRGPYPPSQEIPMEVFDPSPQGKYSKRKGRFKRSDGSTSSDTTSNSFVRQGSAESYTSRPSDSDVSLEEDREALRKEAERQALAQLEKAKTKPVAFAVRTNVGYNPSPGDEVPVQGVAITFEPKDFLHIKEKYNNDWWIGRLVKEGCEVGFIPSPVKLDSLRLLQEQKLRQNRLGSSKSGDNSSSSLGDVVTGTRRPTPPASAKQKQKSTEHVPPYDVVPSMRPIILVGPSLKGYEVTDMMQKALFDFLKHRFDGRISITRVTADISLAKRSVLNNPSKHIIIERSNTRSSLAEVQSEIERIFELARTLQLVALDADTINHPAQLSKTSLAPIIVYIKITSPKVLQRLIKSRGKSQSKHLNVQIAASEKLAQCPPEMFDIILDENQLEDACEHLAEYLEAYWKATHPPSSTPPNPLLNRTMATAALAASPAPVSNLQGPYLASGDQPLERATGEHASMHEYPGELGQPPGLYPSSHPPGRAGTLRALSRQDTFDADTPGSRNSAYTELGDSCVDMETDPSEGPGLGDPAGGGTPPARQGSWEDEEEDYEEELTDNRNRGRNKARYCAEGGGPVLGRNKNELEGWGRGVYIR

Molecule	IC50 (N-type calcium channel) [µM]	also measured
COc1ccc(-c2cc(C(=O)O)c3ccccc3n2)cc1 [Example 1, 2-(4-methoxyphenyl)-4-quinolinecarboxylic acid]	> 10	
O=C(O)c1cc(-c2ccc(Cl)cc2)nc2ccccc12 [Example 2, 2-(4-chlorophenyl)-4-quinolinecarboxylic acid]	> 10	
Nc1ccc2nc(-c3ccccc3)cc(N)c2c1 [Example 3, 2-phenyl-4,6-quinolinediamine]	3.5	inhibition in vivo at 30 mg/kg ([1]; ip, 30 mg/kg, i.p., rats): 45%; inhibition in vivo at 30 mg/kg ([1]; po, 30 mg/kg, p.o., rats): 28%
COc1cccc2c(C(=O)O)cc(-c3ccccc3)nc12 [Example 4, 8-methoxy-2-phenyl-4-quinolinecarboxylic acid]	> 10	
COc1ccc(-c2cc(N)c3ccccc3n2)cc1 [Example 5, 2-(4-methoxyphenyl)-4-quinolinamine]	4.8	
Nc1cc(-c2ccccc2)nc2ccccc12 [Example 6, 2-phenyl-4-quinolinamine]	4.4	inhibition in vivo at 30 mg/kg ([1]; ip, 30 mg/kg, i.p., rats): 88%
Cc1ccc(-c2cc(C(=O)O)c3ccccc3n2)cc1 [Example 7, 2-(4-methylphenyl)-4-quinolinecarboxylic acid]	> 10	
O=C(O)c1cc(-c2ccc(F)cc2)nc2ccccc12 [Example 8, 2-(4-fluorophenyl)-4-quinolinecarboxylic acid]	> 10	
Nc1cc(-c2cccc(F)c2)nc2ccccc12 [Example 9, 2-(3-fluorophenyl)-4-quinolinamine]	2.1	inhibition in vivo at 30 mg/kg ([1]; ip, 30 mg/kg, i.p., rats): 90%; inhibition in vivo at 30 mg/kg ([1]; po, 30 mg/kg, p.o., rats): 41%
CNc1cc(-c2cccc(F)c2)nc2ccccc12 [Example 10, 2-(3-fluorophenyl)-N-methyl-4-quinolinamine]	1.6	inhibition in vivo at 30 mg/kg ([1]; ip, 30 mg/kg, i.p., rats): 77%; inhibition in vivo at 30 mg/kg ([1]; po, 30 mg/kg, p.o., rats): 46%
CN(C)c1cc(-c2cccc(F)c2)nc2ccccc12 [Example 11, 2-(3-fluorophenyl)-N,N-dimethyl-4-quinolinamine]	3	inhibition in vivo at 30 mg/kg ([1]; ip, 30 mg/kg, i.p., rats): 64%
CC(=O)Nc1cc(/C=C/c2ccccc2)nc2ccccc12 [Example 12, N-{2-[(E)-2-phenylethenyl]-4-quinolinyl}acetamide]	5	
Nc1cc(/C=C/c2ccccc2)nc2ccccc12 [Example 13, 2-[(E)-2-phenylethenyl]-4-quinolinamine]	1.4	
Nc1cc(-c2cccs2)nc2ccccc12 [Example 14, 2-(2-thienyl)-4-quinolinamine]	5.4	inhibition in vivo at 30 mg/kg ([1]; ip, 30 mg/kg, i.p., rats): 25%
Cc1c(-c2ccccc2)nc2ccccc2c1C(=O)O [Example 15, 3-methyl-2-phenyl-4-quinolinecarboxylic acid]	> 10	
Cc1c(-c2ccccc2)nc2ccccc2c1N [Example 16, 3-methyl-2-phenyl-4-quinolinamine]	3.6	inhibition in vivo at 30 mg/kg ([1]; ip): 91%; inhibition in vivo at 30 mg/kg ([1]; po): 11%
CC(=O)Nc1cc(/C=C/c2cccc(F)c2)nc2ccccc12 [Example 17, N-{2-[(E)-2-(3-fluorophenyl)ethenyl]-4-quinolinyl}acetamide]	6.4	
Nc1cc(/C=C/c2cccc(F)c2)nc2ccccc12 [Example 18, 2-[(E)-2-(3-fluorophenyl)ethenyl]-4-quinolinamine]	4.3	inhibition in vivo at 30 mg/kg ([1]; ip, 30 mg/kg, i.p., rats): 19%
Cc1cc(C)c2c(N)cc(-c3ccccc3)nc2c1 [Example 19, 5,7-dimethyl-2-phenyl-4-quinolinamine]	1.5	
Cc1cccc2c(N)cc(-c3ccccc3)nc12 [Example 20, 8-methyl-2-phenyl-4-quinolinamine]	3.1	

Molecule	IC50 (N-type calcium channel) [µM]	also measured
COc1ccc2nc(-c3ccccc3)cc(C(=O)O)c2c1 [Example 21, 6-methoxy-2-phenyl-4-quinolinecarboxylic acid]	> 10	
COc1ccc2nc(-c3ccccc3)cc(N)c2c1 [Example 22, 6-methoxy-2-phenyl-4-quinolinamine]	~3	inhibition in vivo at 30 mg/kg ([1]; ip, 30 mg/kg, i.p., rats): 16%
CCc1c(-c2ccccc2)nc2ccccc2c1C(=O)O [Example 23, 3-ethyl-2-phenyl-4-quinolinecarboxylic acid]	> 10	
Nc1ccc2nc(/C=C/c3ccccc3)cc(N)c2c1 [Example 24, 2-[(E)-2-phenylethenyl]-4,6-quinolinediamine]	5.4	
Nc1ccc2nc(/C=C/c3cccc(F)c3)cc(N)c2c1 [Example 25, 2-[(E)-2-(3-fluorophenyl)ethenyl]-4,6-quinolinediamine]	3.8	
COc1cccc2c(N)cc(-c3ccccc3)nc12 [Example 26, 8-methoxy-2-phenyl-4-quinolinamine]	5	
Nc1c2c(nc3ccccc13)-c1ccccc1CC2 [Example 27, 5,6-dihydrobenzo[c]acridin-7-amine]	1.1	inhibition in vivo at 30 mg/kg ([1]; ip, 30 mg/kg, i.p., rats): 50%
O=C(O)c1cc(-c2ccccc2F)nc2ccccc12 [Example 28, 2-(2-fluorophenyl)-4-quinolinecarboxylic acid]	> 10	
CCc1c(-c2ccccc2)nc2ccccc2c1N [Example 29, 3-ethyl-2-phenyl-4-quinolinamine]	1.2	
Nc1cc(-c2ccc(F)cc2)nc2ccccc12 [Example 30, 2-(4-fluorophenyl)-4-quinolinamine]	3.4	
Nc1cc(-c2ccccc2F)nc2ccccc12 [Example 31, 2-(2-fluorophenyl)-4-quinolinamine]	8	
Cc1ccc(-c2cc(N)c3ccccc3n2)cc1 [Example 32, 2-(4-methylphenyl)-4-quinolinamine]	3.1	
Cc1cccc(-c2cc(C(=O)O)c3ccccc3n2)c1 [Example 33, 2-(3-methylphenyl)-4-quinolinecarboxylic acid]	> 10	
Nc1c2c(nc3ccccc13)-c1ccccc1CCC2 [Example 34, 6,7-dihydro-5H-benzo[6,7]cyclohepta[1,2-b]quinolin-8-amine]	0.9	
CC(C)(C)c1cc(N)c2ccccc2n1 [Example 35, 2-tert-butyl-4-quinolinamine]	> 10	
Nc1cc(-c2ccc(Cl)cc2)nc2ccccc12 [Example 36, 2-(4-chlorophenyl)-4-quinolinamine]	5.5	
Cc1cccc(-c2cc(N)c3ccccc3n2)c1 [Example 37, 2-(3-methylphenyl)-4-quinolinamine]	1.2	inhibition in vivo at 30 mg/kg ([1]; ip, 30 mg/kg, i.p., rats): 47%; inhibition in vivo at 30 mg/kg ([1]; po, 30 mg/kg, p.o., rats): 13%
CCOC(=O)C1=C(C)NC(C)=C(C(=O)OC)C1c1cccc([N+](=O)[O-])c1 (stereo not shown) [nitrendipine]		IC50 (L-type calcium channel): 30 nM
conotoxin MVIIA		success rate for the treatment of pain (pain): ~85%

— patent publication US6906193B2, “N-type calcium channel antagonists for the treatment of pain” (AstraZeneca AB, priority 2000, dated 2005)
